From ChEMBL document CHEMBL3044930, “Mannich base derivatives of 1,3,4-oxadiazole: synthesis and screening against Entamoeba histolytica” (Med Chem Res, 2013)

Experiments:
[1] = system: MCF7; assay: Cytotoxicity against Homo sapiens (human) MCF7 cells after 48 hr by MTT assay; format: cell-based; details: MCF7, 48 h
[2] = system: Entamoeba histolytica; assay: Antiamoebic activity against Entamoeba histolytica HM-1:IMSS after 72 hr by eosin stain-based spectrophotometric analysis; format: functional, organism-based

Row | IC50 [2] | Structure (SMILES) | IC50 [1]
1 | 245 nM | Fc1ccc(N2CCN(Cn3nc(-c4ccncc4)oc3=S)CC2)cc1 | > 250 µM
2 | 3620 nM | S=c1oc(-c2ccncc2)nn1CN1CCN(Cc2ccc3c(c2)OCO3)CC1 | 
3 | 327 nM | CCN1CCN(Cn2nc(-c3ccncc3)oc2=S)CC1 | > 250 µM
4 | 3400 nM | S=c1oc(-c2ccncc2)nn1CN1CCN(Cc2ccccc2)CC1 | 
5 | 3470 nM | S=c1oc(-c2ccncc2)nn1CN1CCN(c2ccccc2)CC1 | 
6 | 1060 nM | COc1ccccc1N1CCN(Cn2nc(-c3ccncc3)oc2=S)CC1 | > 250 µM
7 | 2820 nM | S=c1oc(-c2ccncc2)nn1CN1CCN(c2ccccn2)CC1 | 
8 | 5110 nM | CN1CCN(Cn2nc(-c3ccncc3)oc2=S)CC1 | 
9 | 2870 nM | FC(F)(F)c1ccccc1N1CCN(Cn2nc(-c3ccncc3)oc2=S)CC1 | 
10 | 2570 nM | S=c1oc(-c2ccncc2)nn1CN1CCN(c2cccc(Cl)c2)CC1 | 
